From PMC12863215, “The vacuolar transporters MaMATE11 and MaMATE14 affect blue flower coloration in grape hyacinth (Muscari)” (Horticulture Research, 2025)

Tests used:
[1] = system: T1, MaMATE11; experiment: uptake into yeast microsomal vesicles, HPLC, Lineweaver-Burk; format: biochemical, Muscari aucheri; details: transport; 5 mM MgATP, 25 mM Tris-MES pH 8.0, 50 mM KCl, 25 °C, 20 min; minus-ATP subtracted
T1 construct: full-length cDNA in pYES2, expressed in Saccharomyces cerevisiae BY4741; microsomal vesicles; 441 residues; 10 predicted transmembrane segments

[2] = system: T2, MaMATE14; experiment: as above; format: biochemical, Muscari aucheri; details: transport; 5 mM MgATP, 25 mM Tris-MES pH 8.0, 50 mM KCl, 25 °C, 20 min; minus-ATP subtracted
T2 construct: full-length cDNA in pYES2, expressed in Saccharomyces cerevisiae BY4741; microsomal vesicles; 510 residues; 12 predicted transmembrane segments

Structure (SMILES)	Km [1] [µM]	Km [2] [µM]
Oc1ccc([C@H]2Oc3cc(O)cc(O)c3C[C@H]2O)cc1 [(−)-epiafzelechin]	57.4	43.8
OC[C@H]1O[C@@H](Oc2cc3c(O[C@@H]4O[C@H](CO)[C@@H](O)[C@H](O)[C@H]4O)cc(O)cc3[o+]c2-c2ccc(O)c(O)c2)[C@H](O)[C@@H](O)[C@@H]1O [cyanidin-3,5-di-O-glucoside]	27	45.3
OC[C@H]1O[C@@H](Oc2cc3c(O)cc(O)cc3[o+]c2-c2ccc(O)c(O)c2)[C@H](O)[C@@H](O)[C@@H]1O [cyanidin-3-O-glucoside]	57.5	61.4
O=c1c(O)c(-c2ccc(O)cc2)oc2cc(O[C@@H]3O[C@H](CO)[C@@H](O)[C@H](O)[C@H]3O)cc(O)c12 [kaempferol 7-O-glucoside]	60.2	57.4
